# Source: US20090047221A1 (NIPRI LIMITED, priority 2004, published 2009)
# Read-outs that look alike come from different tables or passages of the source.
# Legend:
# Assay in all cases: MTT assay (anti-proliferative activity)
# Type in all cases: cell-based
# MDA-MB-468 = conditions: read-out: IC 50 MDA-MB-468
# Method: (§1) The MTT assay was used initially to determine the anti-proliferative activity of the test compounds. In the MTT assay a yellow thiazolyl blue tetrazolium bromide salt (MTT) is reduced, in metabolically active cells, to form insoluble purple formazan crystals which are solubilised by the addition of dimethyl sulphoxide (DMSO).
# (§2) Wells containing medium only were used as blanks. Following the attachment period, cells were treated with appropriate drug concentrations (20 μl added per well). 40 mg/ml stock drug solutions, in DMSO, were stored at −20° C. and on the day of drug treatment working solutions of 4 mg/ml were prepared in medium which was further diluted to achieve final drug dilution volumes of 20 μl. Initial screening was determined over a concentration range of 1-200 μg/ml. […] Cells were exposed to drug for 96 h continual exposure (37° C., 5% CO2). Following the 96 h incubation, 50 μl MTT solution (1 g MTT/500 ml PBS) was added per well and the plates were further incubated for 4 h (37° C., 5% CO2). After incubation the MTT and medium was removed from the wells and 100 μl DMSO added per well. Plates were agitated on an orbital mixer platform (Stuart Scientific) for 10 minutes. Absorbance was measured at 570 nm on a Biotrak II (Amersham Bioscience) plate reader. IC50 values were calculated comparing control and drug treated cells.
# MalMe3M = conditions: 96 h continual exposure, read-out: IC 50 MalMe3M
# Method: as §1, §2
# SkMel28 = conditions: read-out: IC 50 SkMel28
# Method: as §1, §2
# MCF-7 = conditions: read-out: IC 50 MCF-7
# Method: as §1, §2
# [1] = Homo sapiens, MCF7, 96 h continual exposure
# [2] = Homo sapiens, MDA-MB-468, 96 h continual exposure
# [3] = Homo sapiens, SK-MEL-28, 96 h continual exposure
SMILES,IC50 (MDA-MB-468; 96 h continual exposure) [µM],IC50 (MalMe3M) [µM],IC50 (SkMel28; 96 h continual exposure) [µM],IC50 (MCF-7; 96 h continual exposure) [µM],IC50 (MCF-7; [1]) [µM],IC50 (MDA-MB-468; [2]) [µM],"IC50 (MalMe3M; Homo sapiens, Malme-3M) [µM]",IC50 (SkMel28; [3]) [µM]
"CC(C)CC(NC(=O)c1ccc2c(c1O)C(=O)OC(C)C2)C(=O)O (mixture of isomers) [ALM-56, Leucine Amide]",113,486,> 596,–,–,–,–,–
CC1Cc2ccc(C(=O)NC(C(=O)O)c3ccccc3)c(O)c2C(=O)O1 (mixture of isomers) [ALM-64],118,> 562,> 562,197,–,–,–,–
CC1Cc2ccc(C(=O)NC(CCCCN)C(=O)O)c(O)c2C(=O)O1 (mixture of isomers) [ALM-67],> 570,> 570,> 570,> 570,–,–,–,–
CC1Cc2ccc(C(=O)NCCC(=O)O)c(O)c2C(=O)O1 (racemic),222,290,> 681,136,–,–,–,–
"COc1cc2c(c(O)c1OC)C(=O)OC(C)C2 (racemic) [ALM-1, Racemic (±)—Kigelin]",–,–,–,–,630,306,714,718
"CCCCC/C=C\C/C=C\CCCCCCCC(=O)Oc1c(OC)c(OC)cc2c1C(=O)OC(C)C2 (racemic) [ALM-3, Racemic Kigelin Linoleyl Ester]",99.9,> 399,> 399,150,–,–,–,–
"CC/C=C\C/C=C\C/C=C\CCCCCCCC(=O)Oc1c(OC)c(OC)cc2c1C(=O)OC(C)C2 (racemic) [ALM-4, Racemic Kigelin α-Linolenyl Ester]",90.2,321,> 401,60.2,–,–,–,–
"CCCCC/C=C\C/C=C\C/C=C\CCCCC(=O)Oc1c(OC)c(OC)cc2c1C(=O)OC(C)C2 (racemic) [ALM-5, Racemic Kigelin γ-Linolenyl Ester]",50.1,150,> 401,20,–,–,–,–
"COc1cc2c(c(OC)c1)C(=O)OC(C)C2 (racemic) [ALM-7, 6,8-Dimethoxy-3-methyl-isochroman-1-one]",–,–,–,–,432,486,626,> 900
"COc1cc(O)c2c(c1)CC(C)OC2=O (racemic) [ALM-8, 8-Hydroxy-6-methoxy-3-methylisochroman-1-one]",–,–,–,–,428,428,663,725
"COc1cccc2c1C(=O)OC(C)C2 (racemic) [ALM-12, Racemic Mellein Methyl Ether]",–,–,–,–,> 1040,583,> 1040,> 1040
"CC(=O)Oc1cccc2c1C(=O)OC(C)C2 (racemic) [ALM-15, Acetyl rac-Mellein]",345,613,622,613,–,–,–,–
"CCOC(=O)Oc1cccc2c1C(=O)OC(C)C2 (racemic) [ALM-16, Racemic Mellein Ethyl Carbonate]",240,456,360,296,–,–,–,–
"CCCCC/C=C\C/C=C\CCCCCCCC(=O)Oc1cccc2c1C(=O)OC(C)C2 (racemic) [ALM-18, Racemic Mellein Linoleyl Ester]",> 453,> 453,> 453,> 453,–,–,–,–
"CC/C=C\C/C=C\C/C=C\CCCCCCCC(=O)Oc1cccc2c1C(=O)OC(C)C2 (racemic) [ALM-19, Racemic Mellein α-Linolenyl Ester]",> 455,> 455,> 455,> 455,–,–,–,–
"CCCCC/C=C\C/C=C\C/C=C\CCCCC(=O)Oc1cccc2c1C(=O)OC(C)C2 (racemic) [ALM-20, Racemic Mellein γ-Linolenyl Ester]",> 455,> 455,> 455,342,–,–,–,–
"CC1Cc2c(F)ccc(O)c2C(=O)O1 (racemic) [ALM-23, Racemic Para-Fluoromellein]",469,> 1020,> 1020,> 1020,–,–,–,–

SMILES,IC50 (MDA-MB-468; 96 h continual exposure) [µM],IC50 (MalMe3M) [µM],IC50 (SkMel28; 96 h continual exposure) [µM],IC50 (MCF-7; 96 h continual exposure) [µM],IC50 (MCF-7; [1]) [µM],IC50 (MDA-MB-468; [2]) [µM],"IC50 (MalMe3M; Homo sapiens, Malme-3M) [µM]",IC50 (SkMel28; [3]) [µM]
CC1Cc2c(Br)ccc(O)c2C(=O)O1 (racemic) [ALM-24],–,–,–,–,261,171,249,296
"CC1Cc2c(I)ccc(O)c2C(=O)O1 (racemic) [ALM-26, Racemic Para-Iodomellein]",–,–,–,–,329,263,168,–
"CC1Cc2c(I)cc(I)c(O)c2C(=O)O1 (racemic) [ALM-27, Racemic 2,4-di-iodomellein]",–,–,–,–,116,48.8,109,76.8
COc1ccc(I)c2c1C(=O)OC(C)C2 (racemic) [ALM-28],–,–,–,–,594,211,484,283
"CC(=O)c1ccc2c(c1O)C(=O)OC(C)C2 (racemic) [ALM-29, Racemic ortho-acetylmellein]",–,–,–,–,341,341,341,363
"CC1Cc2c([N+](=O)[O-])cc([N+](=O)[O-])c(O)c2C(=O)O1 (racemic) [ALM-30, Racemic 2,4-dinitromellein]",–,–,–,–,130,138,142,179
"CC1Cc2ccc(C(=O)O)c(O)c2C(=O)O1 (racemic) [ALM-33, 8-Hydroxy-3-methyl-1-oxo-isochroman-7-carboxylic acid]",–,–,–,–,> 900,585,> 900,> 900
"COC(=O)c1ccc2c(c1O)C(=O)OC(C)C2 (racemic) [ALM-34, 8-Hydroxy-3-methyl-1-oxo-isochroman-7-carboxylic acid methyl ester]",–,–,–,–,> 847,360,> 847,> 847
"CC1Cc2ccc(C(=O)OCc3ccccc3)c(O)c2C(=O)O1 (racemic) [ALM-36, Benzyl Ester]",99.3,106,176,–,–,–,–,–
"CC1Cc2ccc(C(=O)Oc3ccccc3)c(O)c2C(=O)O1 (racemic) [ALM-37, Phenyl Ester]",181,308,332,285,–,–,–,–
"CC1Cc2ccc(C(=O)OC3CCCCC3)c(O)c2C(=O)O1 (racemic) [ALM-38, Cyclohexyl Ester]",131,131,131,98.6,–,–,–,–
"CC1Cc2ccc(C(=O)OC(C)(C)C)c(O)c2C(=O)O1 (racemic) [ALM-39, Tert-Butyl Ester]",305,345,359,392,–,–,–,–
"CCCCCCOC(=O)c1ccc2c(c1O)C(=O)OC(C)C2 (racemic) [ALM-40, Hexyl Ester]",42.4,114,163,65.3,–,–,–,–
"CCCCCCCCCCCCOC(=O)c1ccc2c(c1O)C(=O)OC(C)C2 (racemic) [ALM-41, Dodecyl Ester]",166,333,256,192,–,–,–,–
"CCCCCCCC/C=C\CCCCCCCCOC(=O)c1ccc2c(c1O)C(=O)OC(C)C2 (racemic) [ALM-42, Oleyl Ester]",317,> 423,> 423,> 423,–,–,–,–
"CC1Cc2ccc(C(=O)NCc3ccccc3)c(O)c2C(=O)O1 (racemic) [ALM-44, Benzyl Amide]",41.8,128,270,86.7,–,–,–,–
